Assay results taken from patent US6613769B1, “Tryptase inhibitors” (Max-Planck-Gesellschaft zur Föderung der Wissenschaften. …, priority 1998, dated 2003).
Structures can show the parent of a compound that is named as a salt.

target: T1, human tryptase (Homo sapiens, UniProt P20231); assay: Inhibition of human tryptase: cleavage of chromogenic substrate tos-Gly-Pro-Arg-pNA, equilibrium conditions; format: biochemical; conditions: tryptase from human lung tissue; 50 μg of heparin/ml; in the presence of substrate tos-Gly-Pro-Arg-pNA, 405 nm; read-out: Kiapp (apparent dissociation constant)
T1 construct: from tissue; host or cells: human lung tissue
T1 sequence (P20231 31-275): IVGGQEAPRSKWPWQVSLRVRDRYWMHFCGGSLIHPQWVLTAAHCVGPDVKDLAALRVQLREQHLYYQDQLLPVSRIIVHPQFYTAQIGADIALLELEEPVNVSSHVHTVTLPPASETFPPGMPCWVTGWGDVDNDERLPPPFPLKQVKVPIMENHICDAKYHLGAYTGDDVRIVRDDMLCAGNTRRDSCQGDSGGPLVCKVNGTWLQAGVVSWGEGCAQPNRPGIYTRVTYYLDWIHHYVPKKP
Description: The documented pathophysiological effects of mast cell tryptase are brought about directly by the enzymic activity of the protease. Accordingly, they are reduced or blocked by inhibitors which inhibit the enzymatic activity of the tryptase. The equilibrium dissociation constant Ki of the enzyme-inhibitor complex is a suitable measure of the affinity of a reversible inhibitor for the target protease. This Ki value can be determined by measuring the effect of the inhibitor on the tryptase-induced cleavage of a chromogenic peptide-p-nitroanilide substrate.
The dissociation constants of the tryptase-inhibitor complexes are determined under equilibrium conditions in accordance with the general recommendations of Bieth (Bieth JG, Pathophysiological interpretation of kinetic constants of protease inhibitors, Bull. Europ. Physiopath. Resp. 16:183-195, 1980) and the methods of Sommerhoff et al. (Sommerhoff CP et al., A. Kazal-type inhibitor of human mast cell tryptase: Isolation from the medical leech Hirudo medicinalis, characterization, and sequence analysis, Biol. Chem. Hoppe-Seyler 375: 685-694, 1994).
Human tryptase is prepared in a pure state from lung tissue; the specific activity of the isolated protease, determined by means of titration, is normally 85% of the theoretical value. Constant quantities of tryptase are incubated with increasing quantities of the inhibitors in the presence of 50 μg of heparin/ml for stabilizing the protease. After the equilibrium has been established between the reaction partners, the remaining enzyme activity is determined after adding the peptide-p-nitroanilide substrate tos-Gly-Pro-Arg-pNA, the cleavage of which is monitored at 405 nm over a period of 3 min. Alternatively, the residual enzymic activity can also be determined using fluorogenic substrates. The apparent dissociation constants Kiapp (i.e. in the presence of substrate) are subsequently ascertained by nonlinear regression by fitting the enzyme rates to the general equation for reversible inhibitors (Morrison JF, Kinetics of the reversible inhibition of enzyme-catalysed reactions by tight-binding inhibitors, Biochim. Biophys. Acta 185, 269-286, 1969):
V1/V0=131 {Et+lt+Kiapp−[(Et+lt+Kiapp)^2−4Etlt]^½}/2Et
In this equation, V1, and V0 are the rates in the presence and absence of the inhibitor, respectively, and Et and lt are the concentrations of the tryptase and of the inhibitor.
The apparent dissociation constants which were determined for the compounds according to the invention are given in Table A below, in which the numbers of the compounds correspond to the numbers of the compounds in the examples.

| SMILES | Ki [nM] |
| --- | --- |
| NCc1cccc(C(=O)N2CCN(C(=O)c3cccc(C(=O)N4CCN(C(=O)c5cccc(CN)c5)CC4)n3)CC2)c1 [Compound 1, Pyridine-2,6-dicarbobis[4-(3-aminomethylbenzoyl)-1-piperazide]] | 3000 |
| NCc1cccc(C(=O)NC2CCN(C(=O)c3cccc(C(=O)N4CCC(NC(=O)c5cccc(CN)c5)CC4)n3)CC2)c1 [Compound 11, Pyridine-2,6-dicarbobis[4-(3-aminomethylbenzoylamino)-1-piperidide]] | 30 |
| NCC1CCC(C(=O)NC2CCN(C(=O)c3cccc(C(=O)N4CCC(NC(=O)C5CCC(CN)CC5)CC4)n3)CC2)CC1 (stereo not drawn) [Compound 15, Pyridine-2,6-dicarbobis[4-(4-aminomethylcyclohexyl-carbonylamino)-1-piperidide]] | 3000 |
| NCC1CCC(C(=O)N2CCN(C(=O)Nc3ccc(Oc4ccc(NC(=O)N5CCN(C(=O)C6CCC(CN)CC6)CC5)cc4)cc3)CC2)CC1 (stereo not drawn) [Compound 17, bis{4-[4-(4-Aminomethyl)cyclohexanoylpiperazin-1-yl-]-carbonyl}-4,4′-diaminodiphenyl Ether Dihydrochloride] | 22000 |
| NCc1cccc(C(=O)N2CCN(C(=O)Nc3ccc(Oc4ccc(NC(=O)N5CCN(C(=O)c6cccc(CN)c6)CC5)cc4)cc3)CC2)c1 [Compound 21, Bis{4-[4-(3-Aminomethyl)benzoylpiperazin-1-yl]-carbonyl}-4,4′-diaminodiphenyl Ether Dihydrochloride] | 100 |
| NCC1CCC(C(=O)NC2CCN(C(=O)NC3CCC(CC4CCC(NC(=O)N5CCC(NC(=O)C6CCC(CN)CC6)CC5)CC4)CC3)CC2)CC1 (stereo not drawn) [Compound 23, di{4-[4-(4-Aminomethyl)cyclohexanoylamino]piperidin-1-ylcarbamoyl}cyclohexylmethane Dihydrochloride] | 800 |
| CC(C)(c1ccc(OCC(=O)NCc2ccc(NC(=N)N)cc2)cc1)c1ccc(OCC(=O)NCc2ccc(NC(=N)N)cc2)cc1 [Compound 31, 2,2-bis-[4-(4-Guanidinylbenzylamino)carbonylmethoxy-phenyl]propane Dihydroacetate] | 200 |
| CC(C)(c1ccc(OCC(=O)NCC(=O)NCCCCN)cc1)c1ccc(OCC(=O)NCC(=O)NCCCCN)cc1 [Compound 34, 2,2-bis-[4-(10-Amino-3,6-diaza-2,5-dioxodecyloxy)-phenyl]propane Dihydrochloride] | 2000 |
| CC(C)(c1ccc(OC(=O)N2CCN(C(=O)NCc3ccc(CN)cc3)CC2)cc1)c1ccc(OC(=O)N2CCN(C(=O)NCc3ccc(CN)cc3)CC2)cc1 [Compound 36, 2,2-bis-(4-[4-(4-Aminomethylbenzylcarbamoyl)-1-piperazinylcarbonyloxy]phenyl)propane Dihydrochloride] | 28 |
